Where a name gives a salt, the structure may show the parent alone.
Assays:
SIRT2 = target: T1, SIRT2 (Homo sapiens, UniProt Q8IXJ6); assay: In vitro SIRT2 deacetylase inhibition, electrophoretic mobility shift assay; type: biochemical; conditions: for IC50: recombinant SIRT2, FAM-RHKK(Ac)LM peptide, 1 mM NAD, 60 min 37 °C, mean ± SD, read-out: IC50 against SIRT2; for SIRT2 inhibition activity (in words): in vitro
T1 sequence (Q8IXJ6 1-389): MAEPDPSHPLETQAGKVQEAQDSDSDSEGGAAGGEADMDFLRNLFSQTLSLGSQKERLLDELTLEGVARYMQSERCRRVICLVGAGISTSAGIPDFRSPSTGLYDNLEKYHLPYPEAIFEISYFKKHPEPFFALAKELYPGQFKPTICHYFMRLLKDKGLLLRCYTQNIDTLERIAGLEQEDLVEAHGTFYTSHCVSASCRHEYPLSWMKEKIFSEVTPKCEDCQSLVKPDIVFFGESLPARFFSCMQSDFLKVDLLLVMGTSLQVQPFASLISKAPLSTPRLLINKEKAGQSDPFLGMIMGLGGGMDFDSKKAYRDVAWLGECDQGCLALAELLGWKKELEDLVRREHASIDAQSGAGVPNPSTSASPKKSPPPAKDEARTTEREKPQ
From the text: The designs of the new STLC derivatives were based on TH-3 by conserving its trityl group, whereas the L-histidine moiety was replaced by L-cysteine. To obtain exhaustive structure–activity relationship (SAR) information, the amino group was reductively alkylated or acylated using different substituted aldehydes and acyl chlorides, respectively. The terminal methyl ester group was kept or converted to hydrazide (Figure 2). […] Two noncommercially available aldehydes, 4-(dimethylamino)picolinaldehyde and 4-(diethylamino)picolinaldehyde, were prepared as described previously. Thereafter, the in vitro SIRT2 inhibitory activities of these synthesized compounds were examined using electrophoretic mobility shift assays
Deacetylase activities of SIRT2 were measured with an electrophoretic mobility shift assay. […] After 60 min at 37 °C, the reaction was stopped by adding nicotinamide (final concentration 10 mM) in 50 μL stop buffer (100 mM HEPES (pH 7.5), 10 mM EDTA, 0.25% CR-3). The samples were analyzed using a LabChip EZ Reader II (PerkinElmer, Waltham, MA, USA). Percent conversion was defined as 100 × P / (P + S), where P and S are peak heights of the product and peptide substrate, respectively. The IC50 values were determined as means with standard deviation calculated from at least three independent dose–response curves using Origin software (OriginLab, Northampton, MA, USA).

K562 = assay: MTT assay, K562 cells; type: cell-based, human; conditions: leukemic cells
From the text: (§1) Next, the three active compounds (STC4, STC9, and STC11) were utilized for a cell-based assay to explore their potential antiproliferative effect against different cancer cell lines, including MCF7 (breast cancer), HeLa (cervical cancer), and different genotypes of leukemic cells (K562, MT-2, and HL-60) using an MTT assay. […] In general, STC11 cellular activity was less than STC4 and STC9. This may be explained by the lower cellular permeability due to the presence of the more polar hydrazide group.
(§2) HeLa human cervical carcinoma cell lines were incubated in Dulbecco’s modified Eagle’s medium. MCF-7 human breast cancer, leukemic (K562, HL-60, MT-2, and Jurkat), and normal blood (PBMC) (Precision Bioservices, Frederic, MD, USA) cells were incubated in RPMI1640 medium. All media (Wako, Osaka, Japan) were supplemented with 10% fetal bovine serum (Sigma-Aldrich, St. Louis, MO, USA) and 89 μg/mL streptomycin (Meiji Seika, Tokyo, Japan) at 37 °C in a humidified atmosphere of 95% air and 5% CO2. Exponentially growing cells were cultured in 24-well and 96-well plates (Iwaki brand Asahi Glass, Tokyo, Japan) at 2 × 10^4 cells/mL and 1 × 10^6 cells/mL, respectively, for 96 h before the addition of drugs (optimum cell number for cytotoxicity assays was determined in preliminary experiments). Stock solutions of compounds in concentrations between 0.01–10 mM were prepared in dimethyl sulfoxide (DMSO; Wako, Osaka, Japan) and further dilution was made with fresh culture medium. The concentration of DMSO in the final culture medium was 1%, which had no effect on cell viability.
(§3) The level of cellular MTT (Dojindo, Kumamoto, Japan) reduction was quantified as described previously […] At the end of this period, cells were stained with MTT solution and incubated for an additional 4 h at 37 °C. After the medium was removed, the formazan crystals were solubilized by addition of 100 μL DMSO to each well, and absorbance was determined using an Infinitive M1000 plate reader (Tecan, Mannedorf, Switzerland) at a wavelength of 550 nm with background subtraction at 630 nm. Every concentration was repeated in three wells, and IC50 values were calculated from MTT results and defined as the drug concentrations that reduced absorbance to 50% of the control values.

MT-2 = assay: MTT assay, MT-2 cells; type: cell-based, human; conditions: leukemic cells
From the text: as §1, §2, §3

MCF-7 = assay: MTT assay, MCF-7 cells; type: cell-based, human; conditions: breast cancer
From the text: as §1, §2, §3

HeLa = assay: MTT assay, HeLa cells; type: cell-based, human; conditions: 96 h exposure, cervical cancer
From the text: as §1, §2, §3

HL-60 = assay: MTT assay, HL-60 cells; type: cell-based, human; conditions: leukemic cells
From the text: as §1, §2, §3

NCI 60 tumor cell line = tested on: NCI 60 tumor cell line; design: method as in doi:10.1002/ddr.430340203; conditions: NCI 60 tumor cell line screen; cited from earlier work
plasmid DNA (pUC19 DNA) = assay: DNA cleavage assay with plasmid DNA; conditions: 1 μM concentration, 37 °C, 2 h, with and without iron (II), H2O2, ascorbic acid
Protocol: We then tested DNA cleavage as a possible molecular mechanism for cytotoxicity of the tested compounds using plasmid DNA (pUC19 DNA) witH- and without iron (II), H2O2, and ascorbic acid complex (Figure 3). The DNA cleavage reaction was carried out by incubating the reaction mixture at 37 °C for 2 h, and electrophoresis was performed. After electrophoresis, the DNA was stained with ethidium bromide, and the bands were visualized by exposure to ultraviolet radiation and recorded using an electronic camera. […] Furthermore, these compounds may activate oxygen in the cytoplasm. This may explain their high cellular cytotoxic activity owing to a dual effect combining SIRT2 inhibition and DNA cleavage.
The DNA cleavage assays were performed as described previously. Intensity of the bands was quantitated using ImageJ software (NIH, Bethesda, MD, USA).
Figure 3 The inhibitory effects of selected compounds on DNA cleavage in the presence and absence of FeSO4, H2O2, and ascorbic acid. (A) Form I (supercoil), form II (single strand break), and form III (double strand break) bands after electrophoresis. The Form I band is the lower and the Form II band is the upper portion. The pUC19 enzyme cut (by EcoR I) generates form III with mid mobility (the second lane from the left). (B) Relative intensity of form I and form II bands.

[1] = Homo sapiens, K562, 96 h exposure
[2] = Homo sapiens, MT2, 96 h exposure
[3] = Homo sapiens, MCF7, 96 h exposure
[4] = Homo sapiens, HL-60, 96 h exposure

## COC(=O)[C@H](CSC(c1ccccc1)(c1ccccc1)c1ccccc1)NCc1cnc2ccccc2c1 [STC7, Methyl N-(quinolin-3-ylmethyl)-S-trityl-L-cysteinate]
SIRT2
  IC50: > 100 µM

## COC(=O)[C@H](CSC(c1ccccc1)(c1ccccc1)c1ccccc1)NCc1ccccn1 [STC8, Methyl N-(pyridin-2-ylmethyl)-S-trityl-L-cysteinate]
SIRT2
  SIRT2 inhibition activity (in words): devoid of SIRT2 inhibition activity
  IC50: > 100 µM

## Cc1cc(C)nc(SCC(=O)Nc2ncc(Cc3cccc4ccccc34)s2)n1 [SirReal2, reference compound]
K562; 96 h exposure
  IC50: 13.7 ± 0.44 µM
MT-2; 96 h exposure
  IC50: 17.9 ± 1.52 µM
MCF-7; 96 h exposure
  IC50: 17.1 ± 2.15 µM
HeLa
  IC50: 10.4 ± 0.94 µM
HL-60; 96 h exposure
  IC50: 90.6 ± 8.77 µM

## CN(C)c1ccnc(CN[C@H](CSC(c2ccccc2)(c2ccccc2)c2ccccc2)C(=O)NN)c1 [STC11, (S)-2-(((4-(dimethylamino)pyridin-2-yl)methyl)amino)-3-(tritylthio)propanehydrazide]
K562; [1]
  IC50: 15 ± 1.17 µM
SIRT2
  IC50: 9.5 ± 1.2 µM
MT-2; [2]
  IC50: 16.8 ± 1.04 µM
MCF-7; [3]
  IC50: 10 ± 1.12 µM
HeLa; Homo sapiens, HeLa
  IC50: 7.95 ± 0.81 µM
HL-60; [4]
  IC50: 12.8 ± 0.95 µM

## N[C@@H](CSC(c1ccccc1)(c1ccccc1)c1ccccc1)C(=O)O [STLC, S-trityl-L-cysteine]
NCI 60 tumor cell line
  half maximal tumor growth inhibition concentration: 1.3 µM

## COC(=O)[C@H](CSC(c1ccccc1)(c1ccccc1)c1ccccc1)NCc1ccc(N(C)C)cc1OC [STC6, Methyl N-(2-methoxy-4-(dimethylamino)benzyl)-S-trityl-L-cysteinate]
SIRT2
  IC50: > 100 µM

## CCN(CC)c1ccnc(CN[C@H](Cc2cn(C(c3ccccc3)(c3ccccc3)c3ccccc3)cn2)C(=O)OC)c1 [TH-3, reference compound]
K562; [1]
  IC50: 0.3 ± 0.02 µM
SIRT2
  IC50: 1.3 ± 0.2 µM
MT-2; [2]
  IC50: 0.17 ± 0.02 µM
MCF-7; [3]
  IC50: 0.71 ± 0.08 µM
HeLa; Homo sapiens, HeLa
  IC50: 0.37 ± 0.04 µM
HL-60; [4]
  IC50: 0.28 ± 0.04 µM

## COC(=O)[C@H](CSC(c1ccccc1)(c1ccccc1)c1ccccc1)NCc1cc(N(C)C)ccn1 [STC4, Methyl N-((4-(dimethylamino)pyridin-2-yl)methyl)-S-trityl-L-cysteinate]
K562; [1]
  IC50: 2.17 ± 0.25 µM
SIRT2
  IC50: 10.8 ± 1.9 µM
SIRT2; vs TH-3
  fold decrease in SIRT2 inhibition activity compared with TH-3: 10 fold
MT-2; [2]
  IC50: 3.15 ± 0.13 µM
MCF-7; [3]
  IC50: 3.16 ± 0.26 µM
HeLa; Homo sapiens, HeLa
  IC50: 1.56 ± 0.17 µM
HL-60; [4]
  IC50: 0.45 ± 0.05 µM

## COC(=O)[C@H](CSC(c1ccccc1)(c1ccccc1)c1ccccc1)NCc1ccc(N(C)C)cc1 [STC3, Methyl N-(4-(dimethylamino)benzyl)-S-trityl-L-cysteinate]
SIRT2
  IC50: > 100 µM

## COC(=O)[C@H](CSC(c1ccccc1)(c1ccccc1)c1ccccc1)NCc1cccc(Br)n1 [STC1, Methyl N-((6-bromopyridin-2-yl)methyl)-S-trityl-L-cysteinate]
SIRT2
  IC50: > 100 µM

## COC(=O)[C@H](CSC(c1ccccc1)(c1ccccc1)c1ccccc1)NCc1ccc(N(C)C)cc1Cl [STC5, Methyl N-(2-chloro-4-(dimethylamino)benzyl)-S-trityl-L-cysteinate]
SIRT2
  IC50: > 100 µM

## COC(=O)C(N)CSC(c1ccccc1)(c1ccccc1)c1ccccc1 (stereo in doubt) [Compound 1, S-Trityl-L-Cysteine Methyl Ester Hydrochloride]
SIRT2
  SIRT2 inhibition activity (in words): inactive
  IC50: > 100 µM

## CCN(CC)c1ccc(CN[C@@H](CSC(c2ccccc2)(c2ccccc2)c2ccccc2)C(=O)OC)cc1 [STC2, Methyl N-(4-(diethylamino)benzyl)-S-trityl-L-cysteinate]
SIRT2
  IC50: > 100 µM

## CCN(CC)c1ccnc(CN[C@@H](CSC(c2ccccc2)(c2ccccc2)c2ccccc2)C(=O)OC)c1 [STC9, Methyl N-((4-(diethylamino)pyridin-2-yl)methyl)-S-trityl-L-cysteinate]
K562; [1]
  IC50: 2.53 ± 0.31 µM
SIRT2
  IC50: 17.2 ± 1.2 µM
Plasmid DNA (pUC19 DNA)
  DNA cleavage effect: strongest DNA cleavage effect
MT-2; [2]
  IC50: 2.55 ± 0.28 µM
MCF-7; [3]
  IC50: 3.32 ± 0.41 µM
HeLa; Homo sapiens, HeLa
  IC50: 2.72 ± 0.19 µM
HL-60; [4]
  IC50: 1.19 ± 0.09 µM

## COC(=O)[C@H](CSC(c1ccccc1)(c1ccccc1)c1ccccc1)NC(=O)c1cc(N(C)C)ccn1 [STC10, Methyl N-(4-(dimethylamino)picolinoyl)-S-trityl-L-cysteinate]
SIRT2
  SIRT2 inhibition activity (in words): no activity
  IC50: > 100 µM
